Results as given in patent publication US8343475B2, “Small cationic antimicrobial peptides” (priority 2006, dated 2013).
No end group written: not given here.

Legend:
Assay in all cases: Chemokine induction in PBMC (capture ELISA)
Format in all cases: cell-based
[1] = system: MCP-1 release by human PBMC; settings: background (204) subtracted
Description: FIG. 15. Induction of MCP-1 release by 7.5×10^5 human PBMC in response to treatment with 20 or 100 μg/ml of different peptides for 24 hours.
(§1) Venous blood (20 ml) from healthy volunteers was collected in Vacutainer® collection tubes containing sodium heparin as an anticoagulant (Becton Dickinson, Mississauga, ON) in accordance with UBC ethical approval and guidelines. Blood was diluted 1:1 with complete RPMI 1640 medium and separated by centrifugation over a Ficoll-Paque® Plus (Amersham Biosciences, Piscataway, N.J., USA) density gradient. White blood cells were isolated from the buffy coat, washed twice in RPMI 1640 complete medium, and the number of peripheral blood mononuclear cells (PBMC) was determined by trypan blue exclusion. PBMC (5×10^5) were seeded into 12-well tissue culture dishes (Falcon; Becton Dickinson) at 0.75 to 1×10^6 cells/ml at 37° C. in 5% CO2. The above conditions were chosen to mimic conditions for circulating blood monocytes entering tissues at the site of infection via extravasation.
(§2) Following incubation of the cells under various treatment regimens, the tissue culture supernatants were centrifuged at 1000×g for 5 min, then at 10,000×g for 2 min to obtain cell-free samples. Supernatants were aliquoted and then stored at −20° C. prior to assay for various chemokines by capture ELISA (eBioscience and BioSource International Inc., CA, USA respectively)

[2] = system: MCP-3 release by human PBMC; settings: background (6) subtracted
Description: FIG. 16. Induction of MCP3 release by 7.5×10^5 human PBMC in response to treatment with 20 or 100 μg/ml of different peptides for 24 hours.
as §1, §2

[3] = system: CXCL1 (Gro-α) release by human PBMC; settings: background (196) subtracted
Description: FIG. 17. Induction of CXCL1 (Gro-α) release by 7.5×10^5 human PBMC in response to treatment with 20 or 100 μg/ml of different peptides for 24 hours.
as §1, §2

Substance	Chemokine induction MCP-1 ([1]; 20 μg/ml peptide) [pg/mL]	Chemokine induction MCP-1 ([1]; 100 μg/ml peptide) [pg/mL]	Chemokine induction MCP-3 ([2]; 20 μg/ml peptide) [pg/mL]	Chemokine induction MCP-3 ([2]; 100 μg/ml peptide) [pg/mL]	Chemokine induction Gro-α ([3]; 20 μg/ml peptide) [pg/mL]	Chemokine induction Gro-α ([3]; 100 μg/ml peptide) [pg/mL]
1025 (RRIVKKFQIVRR) [compound 1025]	109	284	1	3	-3	32
1027 (KKQVSRVKVWRK) [compound 1027]	54	1466	0	14	8	204
1029 (KQFRIRVRV) [compound 1029]	296	205	3	3	49	60
1034 (KQFRNRLRIVKK) [compound 1034]	434	796	0	4	60	61
1036 (VQFRIRVIVIRK) [compound 1036]	601	968	1	39	51	137
1038 (IVVRRVIRK) [compound 1038]	25	1552	0	41	12	518
1039 (IWVIRRVWR) [compound 1039]	603	2420	13	67	469	1717
1040 (FQVVKIKVR) [compound 1040]	74	1143	0	9	2	264
1042 (IVWIWRR) [compound 1042]	-7	12	3	3	44	9
1044 (RRWIVWI) [compound 1044]	1561	5024	115	261	1963	1545
1045 (RWWRIVI) [compound 1045]	-2	989	0	31	13	435
1046 (WIRVIRW) [compound 1046]	46	449	1	4	38	147
1047 (IIRRWWV) [compound 1047]	8	130	0	0	-1	-3
1048 (IRWVIRW) [compound 1048]	96	38	0	0	7	-11
FRIRVRVIR (FRIRVRVIR-NH2) [compound 1030]	139	2075	1	35	10	674
